Data taken from ChEMBL document CHEMBL5214910, “Rational Design of Dipicolylamine-Containing Carbazole Amphiphiles Combined with Zn2+ as Potent Broad-Spectrum Antibacterial Agents with a Membrane-Disruptive Mechanism” (J Med Chem, 2021).
≈ marks a conversion by molar mass, not a printed value.

What was measured:
[1] = tested on: Acinetobacter baumannii; assay: Antibacterial activity against Acinetobacter baumannii ATCC 17978 assessed as inhIbition of bacterial growth incubated for 24 hrs by Muller hinton broth based dilution assay; type: functional
[2] = tested on: Staphylococcus aureus; assay: Antibacterial activity against Staphylococcus aureus ATCC 29213 assessed as inhibition of bacterial growth incubated for 24 hrs by Muller hinton broth based dilution assay; type: functional
[3] = tested on: Staphylococcus aureus; assay: Antibacterial activity against Methicillin-resistant Staphylococcus aureus N315 assessed as inhibition of bacterial growth incubated for 24 hrs by Muller hinton broth based dilution assay; type: functional
[4] = tested on: Staphylococcus aureus; assay: Antibacterial activity against Methicillin-resistant Staphylococcus aureus NCTC10442 assessed as inhibition of bacterial growth incubated for 24 hrs by Muller hinton broth based dilution assay; type: functional
[5] = tested on: Escherichia coli; assay: Antibacterial activity Escherichia coli ATCC 25922 assessed as inhibition of bacterial growth incubated for 24 hrs by Muller hinton broth based dilution assay; type: functional
[6] = tested on: Pseudomonas aeruginosa; assay: Antibacterial activity Pseudomonas aeruginosa ATCC 9027 assessed as inhibition of bacterial growth incubated for 24 hrs by Muller hinton broth based dilution assay; type: functional
[7] = tested on: Acinetobacter baumannii; assay: Antibacterial activity against Acinetobacter baumannii R2889 assessed as inhIbition of bacterial growth incubated for 24 hrs by Muller hinton broth based dilution assay; type: functional
[8] = Hemolytic activity in rabbit RBC incubated for 1 hrs by fluorescence based microplate reader assay; type: toxicity, cell-based, Oryctolagus cuniculus, Erythrocyte; conditions: rabbit red blood cells (erythrocytes)
[9] = tested on: Staphylococcus aureus; assay: Antibacterial activity against Staphylococcus aureus ATCC 29213 assessed as inhibition of bacterial growth incubated for 24 hrs in the presence of 12.5 ug/mL Zn2+ by Muller hinton broth based dilution assay; type: functional
[10] = tested on: Staphylococcus aureus; assay: Antibacterial activity against Methicillin-resistant Staphylococcus aureus N315 assessed as inhibition of bacterial growth incubated for 24 hrs in the presence of 12.5 ug/mL Zn2+ by Muller hinton broth based dilution assay; type: functional
[11] = tested on: Staphylococcus aureus; assay: Antibacterial activity against Methicillin-resistant Staphylococcus aureus NCTC10442 assessed as inhibition of bacterial growth incubated for 24 hrs in the presence of 12.5 ug/mL Zn2+ by Muller hinton broth based dilution assay; type: functional
[12] = tested on: Escherichia coli; assay: Antibacterial activity Escherichia coli ATCC 25922 assessed as inhibition of bacterial growth incubated for 24 hrs in the presence of 12.5 ug/mL Zn2+ by Muller hinton broth based dilution assay; type: functional
[13] = tested on: Pseudomonas aeruginosa; assay: Antibacterial activity Pseudomonas aeruginosa ATCC 9027 assessed as inhibition of bacterial growth incubated for 24 hrs in the presence of 12.5 ug/mL Zn2+ by Muller hinton broth based dilution assay; type: functional
[14] = tested on: Acinetobacter baumannii; assay: Antibacterial activity against Acinetobacter baumannii ATCC 17978 assessed as inhIbition of bacterial growth incubated for 24 hrs in the presence of 12.5 ug/mL Zn2+ by Muller hinton broth based dilution assay; type: functional
[15] = tested on: Acinetobacter baumannii; assay: Antibacterial activity against Acinetobacter baumannii R2889 assessed as inhIbition of bacterial growth incubated for 24 hrs in the presence of 12.5 ug/mL Zn2+ by Muller hinton broth based dilution assay; type: functional
[16] = Hemolytic activity in rabbit RBC incubated for 1 hrs in the presence of 12.5 ug/mL Zn2+ by fluorescence based microplate reader assay; type: toxicity, cell-based, Oryctolagus cuniculus, Erythrocyte; conditions: rabbit red blood cells (erythrocytes)

Row | Compound | MIC [1] | MIC [2] | MIC [3] | MIC [4] | MIC [5] | MIC [6] | MIC [7] | HC50 at 1 h [8] | MIC [9] | MIC [10] | MIC [11] | MIC [12] | MIC [13] | MIC [14] | MIC [15] | HC50 at 1 h [16]
1 | OC(COc1cccc2[nH]c3ccccc3c12)CN(Cc1ccccn1)Cc1ccccn1 (stereo not given) | 50 µg/mL (≈ 114 µM) | 25 µg/mL (≈ 57 µM) | 25 µg/mL (≈ 57 µM) | 25 µg/mL (≈ 57 µM) | > 50 µg/mL | > 50 µg/mL | > 50 µg/mL | > 200 µg/mL | 6.25 µg/mL | 6.25 µg/mL | 12.5 µg/mL | > 50 µg/mL | 12.5 µg/mL | 50 µg/mL | > 50 µg/mL | > 200 µg/mL
2 | CC(C)=CCn1c2ccccc2c2c(OCC(O)CN(C)C)cccc21 (stereo not given) | 12.5 µg/mL (≈ 35.5 µM) | 6.25 µg/mL (≈ 17.7 µM) | 6.25 µg/mL (≈ 17.7 µM) | 6.25 µg/mL (≈ 17.7 µM) | 25 µg/mL (≈ 70.9 µM) | > 50 µg/mL | 12.5 µg/mL (≈ 35.5 µM) |  | 6.25 µg/mL | 6.25 µg/mL | 6.25 µg/mL | 25 µg/mL | > 50 µg/mL | 12.5 µg/mL | 12.5 µg/mL | 
3 | CCCn1c2ccccc2c2c(OCC3CO3)cccc21 (stereo not given) | > 50 µg/mL | > 50 µg/mL | > 50 µg/mL | > 50 µg/mL | > 50 µg/mL | > 50 µg/mL | > 50 µg/mL | > 200 µg/mL |  |  |  |  |  |  |  | 
4 | Cn1c2ccccc2c2c(OCC3CO3)cccc21 (stereo not given) | > 50 µg/mL | > 50 µg/mL | > 50 µg/mL | > 50 µg/mL | > 50 µg/mL | > 50 µg/mL | > 50 µg/mL | > 200 µg/mL |  |  |  |  |  |  |  | 
5 | O=C(O)c1cn(C2CC2)c2cc(N3CCNCC3)c(F)cc2c1=O [CIPROFLOXACIN] | 0.39 µg/mL (≈ 1.18 µM) | 0.39 µg/mL (≈ 1.18 µM) | 0.39 µg/mL (≈ 1.18 µM) | 0.39 µg/mL (≈ 1.18 µM) | 0.049 µg/mL (≈ 0.148 µM) | 0.195 µg/mL (≈ 0.589 µM) | 0.78 µg/mL (≈ 2.35 µM) |  | 0.39 µg/mL | 0.39 µg/mL | 0.39 µg/mL | 0.049 µg/mL | 0.195 µg/mL | 0.39 µg/mL | 0.78 µg/mL | 
6 | c1ccc2c(c1)[nH]c1cccc(OCC3CO3)c12 (stereo not given) | > 50 µg/mL | > 50 µg/mL | > 50 µg/mL | > 50 µg/mL | > 50 µg/mL | > 50 µg/mL | > 50 µg/mL | > 200 µg/mL |  |  |  |  |  |  |  | 
7 | CCCCCCCCCn1c2ccccc2c2c(OCC3CO3)cccc21 (stereo not given) | > 50 µg/mL | > 50 µg/mL | > 50 µg/mL | > 50 µg/mL | > 50 µg/mL | > 50 µg/mL | > 50 µg/mL | > 200 µg/mL |  |  |  |  |  |  |  | 
8 | CCCCCCCn1c2ccccc2c2c(OCC3CO3)cccc21 (stereo not given) | > 50 µg/mL | > 50 µg/mL | > 50 µg/mL | > 50 µg/mL | > 50 µg/mL | > 50 µg/mL | > 50 µg/mL | > 200 µg/mL |  |  |  |  |  |  |  | 
9 | CC(C)=CCn1c2ccccc2c2c(OCC(O)CNCc3ccccn3)cccc21 (stereo not given) | > 50 µg/mL | 6.25 µg/mL (≈ 15 µM) | 6.25 µg/mL (≈ 15 µM) | 6.25 µg/mL (≈ 15 µM) | 50 µg/mL (≈ 120 µM) | > 50 µg/mL | > 50 µg/mL | > 200 µg/mL | 3.12 µg/mL | 3.12 µg/mL | 6.25 µg/mL | > 50 µg/mL | > 50 µg/mL | > 50 µg/mL | > 50 µg/mL | > 200 µg/mL
10 | FC(F)(F)CCCn1c2ccccc2c2c(OCC3CO3)cccc21 (stereo not given) | > 50 µg/mL | > 50 µg/mL | > 50 µg/mL | > 50 µg/mL | > 50 µg/mL | > 50 µg/mL | > 50 µg/mL |  |  |  |  |  |  |  |  | 
11 | CCCCCn1c2ccccc2c2c(OCC3CO3)cccc21 (stereo not given) | > 50 µg/mL | > 50 µg/mL | > 50 µg/mL | > 50 µg/mL | > 50 µg/mL | > 50 µg/mL | > 50 µg/mL | > 200 µg/mL |  |  |  |  |  |  |  | 
12 | CC(C)=CCn1c2ccccc2c2c(OCC3CO3)cccc21 (stereo not given) | > 50 µg/mL | > 50 µg/mL | > 50 µg/mL | > 50 µg/mL | > 50 µg/mL | > 50 µg/mL | > 50 µg/mL | > 200 µg/mL |  |  |  |  |  |  |  | 
13 | OC(COc1cccc2c1c1ccccc1n2CCCC(F)(F)F)CN(Cc1ccccn1)Cc1ccccn1 (stereo not given) | 6.25 µg/mL (≈ 11.4 µM) | 3.12 µg/mL (≈ 5.7 µM) | 3.12 µg/mL (≈ 5.7 µM) | 1.56 µg/mL (≈ 2.84 µM) | 12.5 µg/mL (≈ 22.8 µM) | > 50 µg/mL | 6.25 µg/mL (≈ 11.4 µM) | > 200 µg/mL | 1.56 µg/mL | 1.56 µg/mL | 0.78 µg/mL | 3.12 µg/mL | 12.5 µg/mL | 3.12 µg/mL | 3.12 µg/mL | > 200 µg/mL
14 | CCCCCCCCCn1c2ccccc2c2c(OCC(O)CN(Cc3ccccn3)Cc3ccccn3)cccc21 (stereo not given) | > 50 µg/mL | 3.12 µg/mL (≈ 5.53 µM) | 0.78 µg/mL (≈ 1.38 µM) | 6.25 µg/mL (≈ 11.1 µM) | > 50 µg/mL | > 50 µg/mL | > 50 µg/mL | > 200 µg/mL | 3.12 µg/mL | 0.78 µg/mL | 6.25 µg/mL | > 50 µg/mL | > 50 µg/mL | 12.5 µg/mL | > 50 µg/mL | > 200 µg/mL
15 | CCCn1c2ccccc2c2c(OCC(O)CN(Cc3ccccn3)Cc3ccccn3)cccc21 (stereo not given) | 6.25 µg/mL (≈ 13 µM) | 3.12 µg/mL (≈ 6.5 µM) | 1.56 µg/mL (≈ 3.25 µM) | 3.12 µg/mL (≈ 6.5 µM) | 12.5 µg/mL (≈ 26 µM) | > 50 µg/mL | 6.25 µg/mL (≈ 13 µM) | > 200 µg/mL | 0.78 µg/mL | 0.78 µg/mL | 1.56 µg/mL | 6.25 µg/mL | 6.25 µg/mL | 3.12 µg/mL | 6.25 µg/mL | > 200 µg/mL
16 | CCN(CC)CC(O)COc1cccc2c1c1ccccc1n2CC=C(C)C (stereo not given) | 50 µg/mL (≈ 131 µM) | 6.25 µg/mL (≈ 16.4 µM) | 6.25 µg/mL (≈ 16.4 µM) | 6.25 µg/mL (≈ 16.4 µM) | > 50 µg/mL | > 50 µg/mL | 25 µg/mL (≈ 65.7 µM) |  | 6.25 µg/mL | 6.25 µg/mL | 6.25 µg/mL | 50 µg/mL | > 50 µg/mL | 50 µg/mL | 25 µg/mL | 
